Measured values taken from patent US20110186299A1, “Low-Toxicity Biodegradable Corrosion Inhibitors” (priority 2008, published 2011).

Experiments:
[1] = Biodegradability in seawater (OECD Guideline 306); settings: marine environment
Protocol: The biodegradability tests are carried out in a marine environment according to the OECD Guideline 306.

[2] = test system: freshwater algae (Pseudokirchneriella subcapitata); assay: Algal toxicity, growth inhibition of freshwater algae over 72 hours (OECD Guideline 201); format: cell-based; settings: inhibition of 50% of algal growth
Protocol: The toxicity of the substances for the environment can be measured with regard to various standardized tests. One of the more sensitive consists of the measurement of the toxicity with regard to freshwater algae (Pseudokirchneriella subcapitata). The test is carried out according to the OECD Guideline 201. It consists in evaluating the inhibition of the growth of the algae over a period of time of 72 hours. The characteristic parameter is the EC50, which is the concentration of the substance which brings about inhibition of 50% of the algal growth during the test.

Molecule | OECD 306 Biodegradability, % of biodegradation in 28 days [1] [%] | Algal toxicity (EC50 in mg/l) [2] [mg/L]
N-aminoethyl-2-heptadecenylimidazoline maleate [Example 2] | 66 | 1
CCCCCCCCC=CCCCCCCCC1=NCCN1CCN [Imidazoline A, N-aminoethyl-2-heptadecenylimidazoline] | 57 | 0.0047
